How the values were obtained:
CD20 mRNA in Raji cells = assay: CD20 mRNA expression relative to RPLP1 in Raji cells; type: cell-based, human; settings: 0.25-4.0 μM, 48 hours, FIG. 2D
Protocol: (§1) Cells were treated with increasing concentrations of Compound A (i.e., 0.25 μM, 0.5 μM, 1.0 μM, 2.0 μM, and 4.0 μM) for 48 hours and processed for cell surface abundance of CD20 protein and mRNA in Raji cells. The treated Raji cells were stained for IgG2bK-APC and CD20-APC. The dotted line indicates median of DMSO treatment. The quantification of mean fluorescence intensity (MFI) following cell surface staining and flow cytometry of Raji cells is shown in FIG. 2B. Each sample was background subtracted, where the IgG2bK-APC median MFI in Raji cells was used as the background. […] Together, increased CD20 expression triggered by Compound A can be a potential mechanism for the in vivo combination effect on the Raji cell model. Compound A induced CD20 mRNA expression and cell surface abundance of CD20 on Raji cells. That can be a potential mechanism for the synergistic effect of Compound A with rituximab.

CD20 in Jeko cells = assay: Cell surface abundance of CD20 by staining and flow cytometry in Jeko cells; type: cell-based; settings: 0.25-4.0 μM, 48 hours, MFI, FIG. 3A/3B
Protocol: (§2) Cells were treated with increasing concentrations of Compound A (i.e., 0.25 μM, 0.5 μM, 1.0 μM, 2.0 μM, and 4.0 μM) for 48 hours and processed for cell surface abundance of CD20 protein and mRNA in Jeko cells. The treated Jeko cells were stained for IgG2bK-APC and CD20-APC. The dotted line indicates median of DMSO treatment. The quantification of mean fluorescence intensity (MFI) following cell surface staining and flow cytometry of Jeko cells is shown in FIG. 3B. Each sample was background subtracted, where the IgG2bK-APC median MFI in Jeko cells was used as the background. […] Compound A induced CD20 mRNA expression and cell surface abundance of CD20 on Jeko cells. That can be a potential mechanism for the synergistic effect of Compound A with rituximab.

CD20 in Raji cells = assay: Cell surface abundance of CD20 by staining and flow cytometry in Raji cells; type: cell-based, human; settings: 0.25-4.0 μM, 48 hours, MFI, FIG. 2A/2B
Protocol: as §1

CD20 mRNA in Jeko cells = assay: CD20 mRNA expression relative to RPLP1 in Jeko cells; type: cell-based; settings: 0.25-4.0 μM, 48 hours, FIG. 3D
Protocol: as §2

O=C(CCCCCCNC(=O)c1cnc(N(c2ccccc2)c2ccccc2Cl)nc1)NO [Compound A, 2-((2-chlorophenyl)(phenyl)amino)-N-(7-(hydroxyamino)-7-oxoheptyl)pyrimidine-5-carboxamide]
induced: CD20 mRNA expression (CD20 mRNA in Raji cells) | cell surface abundance of CD20 (CD20 in Jeko cells) | cell surface abundance of CD20 (CD20 in Raji cells) | CD20 mRNA expression (CD20 mRNA in Jeko cells)

— US11324744B2, “Methods of use and pharmaceutical combinations of histone deacetylase inhibitors and CD20 inhibitory antibodies” (Acetylon Pharmaceuticals Inc., priority 2016, dated 2022)
